According to PMC12355554, “Development of novel mitochondrial pyruvate carrier inhibitors for breast cancer treatment” (The Journal of Biological Chemistry, 2025):
Entries after “also recorded” stand apart in the source; their conditions may differ.

Assays:
[1] = target: T1, mitochondrial pyruvate carrier (MPC) (Mus musculus, UniProt P63030+Q9D023); test: Pyr-driven respiration in permeabilized 67NR cells; type: cell-based, murine
T1 construct: 4T1 cells were seeded (20,000 cells/well) onto Seahorse XFe96 well plates; host or cells: 4T1 murine breast cancer cells, rPFO-permeabilized
T1 sequence (P63030 1-109): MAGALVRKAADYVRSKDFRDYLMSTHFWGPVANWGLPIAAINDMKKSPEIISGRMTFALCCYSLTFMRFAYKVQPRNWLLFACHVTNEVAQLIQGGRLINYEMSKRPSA
T1 sequence (Q9D023 1-127): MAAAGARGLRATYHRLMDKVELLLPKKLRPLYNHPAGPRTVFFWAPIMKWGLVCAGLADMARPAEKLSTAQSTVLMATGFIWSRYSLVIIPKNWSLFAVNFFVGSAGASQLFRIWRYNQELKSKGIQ

67NR = test: Sulforhodamine B cell proliferation inhibition assay, 67NR; type: cell-based, murine; settings: Mus musculus, 72 h, average ± SEM
Method: (§1) Cells were seeded (3 × 10^4 cells/well) in 48-well plates and incubated overnight (37 °C, 5% CO2). Test compounds were then exposed to cells in duplicate in serial dilution fashion and were incubated for an additional 72 h (37 °C, 5% CO2). Media were then aspirated, and cells were washed three times with cold PBS and left overnight to dry fix. […] Dyed cells were then lysed with Tris (10 mM, pH 10), and absorbance readings were recorded at 540 nm of each well. Treatment absorbances are taken as percentages of the average untreated absorbances and plotted against log(concentration) in GraphPad Prism 10 to generate effective concentration values where 50% of the cells are not proliferating (EC50).

67NR tumor = test: Tumor efficacy study in a 67NR syngraft; settings: 14-day treatment
[2] = target: T1, mitochondrial pyruvate carrier (MPC); test: Seahorse XFe96 Pyr-driven respiration in rPFO-permeabilized 4T1 cells; type: cell-based, murine; settings: read-out: IC50, inhibition of Pyr-driven respiration
Method: After validating the ability of rPFO to permeabilize 4T1 cells without damaging mitochondria, we sought to investigate the ability of candidate compounds to inhibit Pyr-driven respiration in these cells (Fig. 1, D–G). In this regard, 4T1 cells were seeded in Seahorse XFe96 well plates and were incubated to reach confluence (∼18–24 h) in growth media (+serum). Growth media were then aspirated, and cells were washed with MAS buffer to remove serum and endogenous metabolic substrates. Serum- and substrate-starved cells were then incubated for equilibration in MAS buffer in a non-CO2 incubator. Inhibitors, rPFO, and substrate milieus were prepared in MAS buffer to be injected in succession to allow for real-time observation of the effects of compound-treated cultures on oxygen consumption rates (OCRs) when compared with vehicle (dimethyl sulfoxide [DMSO])-treated cells. Equilibrated intact cells were allowed to establish basal respiratory rates, followed by the injection of candidate compounds C1 to C4 at varying dose-titrated concentrations, respectively, and acute decreases in OCR were observed (Fig. 1, D–G). Compound exposure was performed in intact cells to avoid influence of rPFO on acute cellular targets. Cells were then exposed to rPFO, followed by the carbonyl cyanide-p-trifluoromethoxyphenylhydrazone (FCCP)–stimulated Pyr substrate milieu, which consisted of Pyr, malate (Mal), and dichloroacetate (DCA) to fuel uninhibited Pyr respiratory flux and maximal respiration. Mal and DCA were included to allow for continuous TCA cycle function without acetyl CoA feedback–mediated inhibition (Mal) or Pyr dehydrogenase–regulated inhibition (DCA) of Pyr uptake. Here, we observed a dose-dependent inhibition of Pyr-driven respiration in cells treated with the candidate compounds, allowing for logarithmic dose–response curves to be generated, and 50% inhibitory concentrations (IC50) to be calculated (Fig. 1, D–G). Finally, complex I and […] were injected to halt respiration and end the assay. […] In this regard, the fluoro-aminocarboxycoumarin derivative C4 has been designated as the lead candidate for further investigation.
(§2) Permeabilized cell assays were performed using rPFO as described previously. 4T1 cells were seeded (20,000 cells/well) onto Seahorse XFe96 well plates and incubated overnight in growth media at 37 °C and 5% CO2 for adherence. On the day of the assay, growth media were aspirated and replaced with MAS buffer (70 mM sucrose, 220 mM mannitol, 10 mM potassium phosphate monobasic, 5 mM magnesium chloride, 2 mM Hepes, and 1 mM EGTA) after 3X rinse of growth media to remove serum and endogenous metabolic substrates, and incubated at 37 °C in a non-CO2 incubator. Respective inhibitor and substrate milieu's were prepared in MAS buffer for port injections A–D at 8X, 9X, 10X, and 11X the target cell concentrations to account for intrinsic dilution factor of in situ injections of each port. […] Final substrate concentrations for specific tests were as follows: (5 mM Pyr , 0.5 mM Mal, 2 mM DCA; 10 mM glutamate, 0.5 mM Mal, 2 mM DCA; 10 mM succinate, 2 μM rotenone; 20 mM methyl Pyr, 5 mM Pyr, 0.5 mM Mal, and 2 mM DCA). ATP rate assays and mitochondrial stress tests were performed according to the manufacturer's (Agilent) instructions.

[3] = target: T1, mitochondrial pyruvate carrier (MPC); test: Methyl pyruvate reversal of inhibited Pyr-driven respiration; type: cell-based, murine; settings: permeabilized 4T1 cells; 20 mM methyl Pyr
Excerpt: (§3) Although our initial experiments and previous literature illustrate the ability of the candidate compounds to inhibit Pyr-driven respiration, we sought to investigate the ability of candidate compounds to inhibit respiration fueled by other metabolic substrates, glutamate and succinate (Fig. 2). Glutamate, similar to Pyr oxidation, results in NADH equivalents that fuel complex I-mediated respiration, and succinate metabolism offers FADH2 for electrons in complex II-driven respiratory processes. […] To further validate the mode of action of the candidate compounds, a series of similar Seahorse experiments were employed (Fig. 2, A–C). In these experiments, 4T1 cells were first permeabilized and were then offered metabolic substrates Pyr (Pyr/Mal; Fig. 2A), glutamate (Glu/Mal, Fig. 2B), or succinate (Fig. 2C), and the resulting OCR was observed. As described previously, Mal and DCA were included in the substrate milieu of glutamate respiration experiments. […] To validate that inhibition of Pyr respiration is due to mitochondrial Pyr uptake and not other Pyr-processing enzymes (i.e., Pyr dehydrogenase), a parallel experiment using methyl pyruvate (MePyr) was employed (Fig. 2, E and F). MePyr is permeable to the mitochondrial membranes, where in the matrix, mitochondrial esterase hydrolysis activity provides Pyr.
Permeabilized cell assays were performed using rPFO as described previously. […]

[4] = Intrinsic CL in human liver microsomes; type: in vitro ADME
physchem = settings: water
Excerpt: Starting with the carboxylic acid 24, various salt forms were generated to increase the water solubility.

4T1 = test: Sulforhodamine B cell proliferation inhibition assay, 4T1; type: cell-based, murine; settings: Mus musculus, 72 h, average ± SEM
Method: as §1

[5] = system: glutamate-driven respiration in 4T1 cells; test: Seahorse glutamate-driven respiration in permeabilized 4T1 cells; type: cell-based, murine; settings: Glu/Mal, candidate compounds 1 μM
Excerpt: as §3, §2

CN(Cc1ccc(C(F)(F)F)cc1)c1ccc2cc(C(=O)O)c(=O)oc2c1.NC(CO)(CO)CO [C5, 1,3-dihydroxy-2-(hydroxymethyl)propan-2-aminium 7-(methyl(4-(trifluoromethyl)benzyl)amino)-2-oxo-2H-chromene-3-carboxylate]
effect on pyruvate driven respiration [1]: inhibits | EC50 (67NR): 94.7 ± 12.9 µM | mouse body weight (67NR tumor): remained stable | IC50 [2]: 14.4 ± 0.5 nM | reversal of Pyr-driven respiration effects by methyl pyruvate [3]: able to reverse | increase in Clint compared with C3 ([4]; human liver microsomes): two-fold | half-life ([4]; human, liver microsomes, exceeding the experimental endpoints): > 120 min | solubility (physchem): 10000 µg/mL | EC50 (4T1): 67.9 ± 7.3 µM | effect on glutamate-driven respiration [5]: does not alter; also recorded: did not alter
